Experimental data published in patent US10683278B2 (JINAN UNIVERSITY, priority 2015, dated 2020).

Legend:
AXL kinase = biological target: T1, AXL kinase (Homo sapiens, UniProt P30530); assay: IC50 test on AXL kinase (Z′-LYTE FRET kinase activity detection); format: biochemical; settings: Z′-LYTE FRET peptide assay, 1 h reaction
T1 construct: purchased Invitrogen PV4803
T1 sequence (P30530 26-894): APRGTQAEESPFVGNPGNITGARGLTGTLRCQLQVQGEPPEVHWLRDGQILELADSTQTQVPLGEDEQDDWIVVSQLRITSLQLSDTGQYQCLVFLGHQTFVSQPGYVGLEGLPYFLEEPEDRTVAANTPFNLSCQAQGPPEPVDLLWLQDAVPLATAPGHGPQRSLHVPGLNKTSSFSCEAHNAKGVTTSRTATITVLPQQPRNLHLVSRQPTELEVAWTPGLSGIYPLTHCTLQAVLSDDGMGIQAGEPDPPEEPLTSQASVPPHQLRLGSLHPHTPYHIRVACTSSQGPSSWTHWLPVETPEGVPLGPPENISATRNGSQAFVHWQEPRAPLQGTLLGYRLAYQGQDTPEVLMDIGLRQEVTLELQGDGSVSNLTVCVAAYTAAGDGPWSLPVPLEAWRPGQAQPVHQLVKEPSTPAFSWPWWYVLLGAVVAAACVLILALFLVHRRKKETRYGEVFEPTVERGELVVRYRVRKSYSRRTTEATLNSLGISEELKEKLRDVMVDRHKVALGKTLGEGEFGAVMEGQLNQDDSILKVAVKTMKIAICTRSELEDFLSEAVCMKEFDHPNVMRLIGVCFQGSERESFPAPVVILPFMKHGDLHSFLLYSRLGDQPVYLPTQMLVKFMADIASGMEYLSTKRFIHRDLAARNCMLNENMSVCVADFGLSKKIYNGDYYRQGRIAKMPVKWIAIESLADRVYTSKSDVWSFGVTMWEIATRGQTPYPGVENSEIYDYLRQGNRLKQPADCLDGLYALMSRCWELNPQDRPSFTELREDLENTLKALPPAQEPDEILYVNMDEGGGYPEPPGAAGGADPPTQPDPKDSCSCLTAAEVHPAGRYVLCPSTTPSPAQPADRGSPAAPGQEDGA
Text: Kinase activity detection: The activity of compounds on kinases was detected by a secondary reaction which used the Z′-LYTE™ technique (a detection using fluorescence, enzyme coupling, and based on differences in susceptibility of phosphorylated and non-phosphorylated polypeptides to proteolytic cleavage), followed the fluorescence resonance energy transfer (FRET) principle, and used Z′-LYTE™ FRET peptide substrates (Invitrogen, Z′-LYTE™ KINASE ASSAY KIT—TYR 2 PEPTIDE, PV3191). AXL kinase (invitrogen, PV4803) was diluted stepwise, FRET peptide was then added, followed by ATP, then by compounds at different concentrations, reacted for 1 h, site-specific proteases were then added to recognize and cleave non-phosphorylated FRET peptides, reacted for 1 h, and […] at 445 nm and 520 nm were detected using excitation wavelength of 400 nm.

[1] = biological target: T2, FLT-3 kinase domain recombinant protein (Homo sapiens, UniProt P36888); assay: Inhibition rate on FLT3 kinase (ELISA); format: biochemical; settings: two values per compound; for inhibition at 0.01 µM / inhibition at 0.1 µM / inhibition at 1 µM: read-out: Inhibition rate (%) against receptor tyrosine kinase FLT-3
T2 construct: 50 μL FLT-3 kinase domain recombinant protein diluted with reaction buffer to initiate the reaction
T2 sequence (P36888 610-943 limits assumed): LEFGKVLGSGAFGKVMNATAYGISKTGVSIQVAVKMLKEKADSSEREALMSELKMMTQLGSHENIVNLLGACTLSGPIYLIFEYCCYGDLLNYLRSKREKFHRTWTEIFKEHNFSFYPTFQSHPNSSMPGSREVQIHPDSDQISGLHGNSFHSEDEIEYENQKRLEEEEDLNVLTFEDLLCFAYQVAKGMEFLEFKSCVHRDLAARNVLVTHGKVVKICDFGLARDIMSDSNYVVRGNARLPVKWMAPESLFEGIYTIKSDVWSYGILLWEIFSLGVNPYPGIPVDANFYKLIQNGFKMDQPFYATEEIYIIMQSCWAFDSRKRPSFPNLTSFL
Protocol: Conventional enzyme-linked immunosorbent assay (ELISA) method is used, and the specific steps are as follows
12,000 g of compounds were centrifuged for 5 min, DMSO was added to make a 10^−2M stock solution, vortexed uniformly and sonicated for 10 min for standby application, and stored at −40° C. The compounds were diluted from the stock solution with DMSO to 100 times the concentration to be tested (concentration of DMSO in the system being 1%) during the test.
1. The enzyme reaction substrate Poly (Glu, Tyr) 4:1 was diluted to 20 μg/mL with potassium-free PBS (10 mM sodium phosphate buffer, 150 mM NaCl, pH 7.2-7.4), the ELISA plate was coated with same in 125 μL/well, and reacted at 37° C. for 12-16 hours, the liquid in wells was discarded, the plate was washed three times, for 5 minutes each time, with T-PBS (potassium-free PBS with 0.1% Tween-20, 200 μL/well), and the ELISA plate was dried in an oven at 37° C. for 1-2 hours.
2. To each well were added 49 μL of ATP solution diluted with reaction buffer (50 mM HEPES pH 7.4, 50 mM MgCl2, 0.5 mM MnCl2, 0.2 mM Na3VO4, 1 mM DTT), 1 μL of compounds to be tested, and 50 μL FLT-3 kinase domain recombinant protein diluted with reaction buffer to initiate the reaction (two ATP-free control wells are required for each experiment). Subject to a shaker (100 rpm) at 37° C. and reacted for 1 hour. The liquid in wells was discarded, and the plate was washed three times with T-PBS.
(§1) 3. Antibody PY99 diluent (the antibody was diluted in 1:500 with T-PBS which contains 5 mg/mL BSA) was added in 100 μL/well, subjected same to a shaker at 37° C. and reacted for 0.5 hour. The liquid in wells was discarded, and the plate was washed three times with T-PBS.
as §1, with “4. Horseradish peroxidase labeled goat anti-mouse secondary antibody” for “3. Antibody PY99”, “1:2000” for “1:500”, “mg/ml” for “mg/mL”
5. 2 mg/ml of OPD developing solution (diluted with 0.1 M citric acid-sodium citrate buffer which contains 0.03% H2O2 (pH=5.4)) was added in 100 μL/well, and reacted at 25° C. in the dark for 1-10 minutes.
6. 2 M H2SO4 was added in 50 μL/well to stop the reaction, and the reading from the wavelength-adjustable microwell plate ELIASA VERSAmax was performed with a wavelength of 490 nm.

IC50 (AXL kinase) [nM] | Inhibition rate (%) against receptor tyrosine kinase FLT-3 ([1]; compound 10 nM, 0.01 µM) [%] | inhibition at 0.01 µM ([1]; compound 10 nM) [%] | Inhibition rate (%) against receptor tyrosine kinase FLT-3 ([1]; compound 100 nM, 0.1 µM) [%] | inhibition at 0.1 µM ([1]; compound 100 nM) [%] | Inhibition rate (%) against receptor tyrosine kinase FLT-3 ([1]; compound 1000 nM, 1 µM) [%] | inhibition at 1 µM ([1]; compound 1000 nM) [%] | Structure (SMILES)
26.5 | 62.8 | 63.8 | 56.6 | 69.8 | 68.5 | 72 | COc1cc2ncnc(Oc3ccc(NC(=O)c4cn5c6c(cc(C)cc6c4=O)CCC5)cc3F)c2cc1OC [TL4830032, N-(4-((6,7-dimethoxyquinazolin-4-yl)oxy)-3-fluorophenyl)-9-methyl-1-oxo-1,5,6,7-tetrahydropyrido[3,2,1-ij]quinoline-2-carboxamide]
26 | 54.2 | 59.4 | 72.9 | 62.6 | 84.6 | 81.8 | Cc1c(C(=O)Nc2ccc(Oc3ncnc4[nH]cc(-c5ccccc5)c34)c(F)c2)c(=O)c2cc(C(C)C)ccc2n1C [TL50172, N-(3-fluoro-4-(5-phenyl-7H-pyrrolo[2,3-d]pyrimidin-4-yloxy)phenyl)-6-isopropyl-1,2-dimethyl-4-oxo-1,4-dihydroquinoline-3-carboxamide]
20 | 49.2 | 48.5 | 51.8 | 50.3 | 81.2 | 83.5 | COc1cc2ncnc(Oc3ccc(NC(=O)c4cn(C5CC5)c5cc(N6CCNCC6)c(F)cc5c4=O)cc3F)c2cc1OC [GDL5000110, 1-cyclopropyl-N-(4-(6,7-dimethoxyquinazolin-4-yloxy)-3-fluorophenyl)-6-fluoro-4-oxo-7-(piperazin-1-yl)-1,4-dihydroquinoline-3-carboxamide]
72 | 52.7 | 55.9 | 63.8 | 67.8 | 82.3 | 88.7 | CCc1ccc2c(c1)c(=O)c(C(=O)Nc1ccc(Oc3ccnc(N)c3Cl)c(F)c1)c(C)n2C [GDL5000059, N-(4-((2-amino-3-chloropyridin-4-yl)oxy)-3-fluorophenyl)-6-ethyl-1,2-dimethyl-4-oxo-1,4-dihydroquinoline-3-carboxamide]
75 | 61.5 | 59.5 | 70.2 | 76.3 | 74.1 | 83.8 | Cc1c(C(=O)Nc2ccc(Oc3ncnc4[nH]cc(-c5ccccc5)c34)c(F)c2)c(=O)c2cc(OC(F)(F)F)ccc2n1C [TL4800117, N-(3-fluoro-4-((5-phenyl-7H-pyrrolo[2,3-d]pyrimidin-4-yl)oxy)phenyl)-1,2-dimethyl-4-oxo-6-(trifluoromethoxy)-1,4-dihydroquinoline-3-carboxamide]
42 | 44.9 | 40.5 | 65.8 | 69.5 | 79.1 | 84 | Cc1c(C(=O)Nc2ccc(Oc3ncnc4[nH]cc(-c5ccccc5)c34)c(F)c2)c(=O)c2cc(C(C)(C)C)ccc2n1C [TL4800062, 6-(tert-butyl)-N-(3-fluoro-4-((5-phenyl-7H-pyrrolo[2,3-d]pyrimidin-4-yl)oxy)phenyl)-1,2-dimethyl-4-oxo-1,4-dihydroquinoline-3-carboxamide]
34 | 55.0 | 58.3 | 73.0 | 80.7 | 95.9 | 98.2 | CCc1ccc2c(c1)c(=O)c(C(=O)Nc1ccc(Oc3ncnc4[nH]cc(-c5cnn(C)c5)c34)c(F)c1)c(C)n2C [GDL5000038, 6-ethyl-N-(3-fluoro-4-(5-(1-methyl-1H-pyrazol-4-yl)-7H-pyrrolo[2,3-d]pyrimidin-4-yloxy)phenyl)-1,2-dimethyl-4-oxo-1,4-dihydroquinoline-3-carboxamide]
153 | 61.6 | 58.2 | 63.3 | 66.7 | 77.6 | 84.4 | Cc1c(C(=O)Nc2ccc(Oc3ncnc4[nH]cc(-c5ccccc5)c34)c(F)c2)c(=O)c2cc(C(F)(F)F)ccc2n1C [TL50121, N-(3-fluoro-4-((5-phenyl-7H-pyrrolo[2,3-d]pyrimidin-4-yl)oxy)phenyl)-1,2-dimethyl-4-oxo-6-(trifluoromethyl)-1,4-dihydroquinoline-3-carboxamide]
> 10000 | – | – | – | – | – | – | Cc1c(C(=O)Nc2ccc(Oc3ncnc4[nH]cc(-c5ccccc5)c34)c(F)c2)c(=O)c2ccc(C(F)(F)F)cc2n1C [TL50086, N-(3-fluoro-4-(5-phenyl-7H-pyrrolo[2,3-d]pyrimidin-4-yloxy)phenyl)-1,2-dimethyl-4-oxo-7-(trifluoromethyl)-1,4-dihydroquinoline-3-carboxamide]
